In publication PMC4027214 (2014):

Assays:
[1] = tested on: TFF1-ERE (DNA, duplex) AGGTCACGGTGGCCA/TGGCCACCGTGACCT; assay: NMR titration and solution structure; details: 50 mM sodium phosphate (Na+); pH 7, 25 °C; bis-intercalation, each drug one strong and one weak intercalation site
[2] = tested on: TFF1-ERE (DNA, duplex) AGGTCACGGTGGCCA/TGGCCACCGTGACCT; assay: fluorescent intercalator displacement (FID); details: 5 mM sodium phosphate (Na+); pH 7, 25 °C; ethidium bromide displaced; DNA 16.7 μM; fit assumes KD1 = KD2; apparent

Structure (SMILES): Cc1cccc2nc3cccc(C(=O)NCCNCCNCCNC(=O)c4cccc5nc6cccc(C)c6nc45)c3nc12
- binding [1]: yes
- KD [2]: ~ 9.65 × 10^−7 M
